Experimental data taken from patent US20050282755A1, “Compositions having antimicrobial activity and uses thereof” (priority 2004, published 2005).
Converted amounts (≈) assume the structure as drawn. Non-standard residues stand in square brackets, D forms with d. Residues, ends and D or L forms follow the SMILES beside them. *: point of attachment. 1Nal = N[C@@H](Cc1cccc2ccccc12)C(=O)O; Lauroyl = CCCCCCCCCCCC(=O)*; Octanoyl = CCCCCCCC(=O)*

Experiments:
Format in all cases: cell-based
[1] = test system: Escherichia coli ATCC 25922; assay: MIC, NCCLS M7-A6 broth microdilution (Table 9, no superscript); conditions: ATCC 25922
How it was run: (§1)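 Values come from a broth microdilution assay run in cation-adjusted Mueller Hinton broth with an inoculum of 5×10^5 to 1×10^6 CFU/milliliter, incubated overnight at 37° C and read as absence of visible turbidity.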

Salmonella dublin (Lane) = assay: as above
How it was run: as §1

[2] = test system: Pseudomonas aeruginosa ATCC 27853; assay: as above; conditions: ATCC 27853
How it was run: as §1

[3] = test system: Staphylococcus epidermidis ATCC 12228; assay: as above; conditions: ATCC 12228
How it was run: as §1

[4] = test system: Staphylococcus aureus ATCC 29213; assay: MIC, NCCLS M7-A6 broth microdilution, cation-adjusted Mueller Hinton broth (Table 9, no superscript); conditions: ATCC 29213
How it was run: as §1

[5] = test system: Propionibacterium acnes ATCC 6919; assay: MIC, agar dilution method NCCLS M11-A6, Brucella agar, anaerobic (Table 9, superscript c); conditions: ATCC 6919
How it was run: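 MIC taken as the lowest peptide level giving no colonies on the plate. Plates were inoculated to 1.5×10^8 CFU/milliliter, then kept anaerobically at 37° C. for 48-96 hours; method follows NCCLS M11-A6.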

Row | MIC E. coli [1] [mg/L] | MIC S. dublin (Salmonella dublin (Lane)) [mg/L] | MIC P. aeruginosa [2] [mg/L] | MIC S. epidermidis [3] [mg/L] | MIC S. aureus [4] [mg/L] | MIC P. acnes [5] [c ug/mL] | SMILES
1 | 8 (≈ 7.21 µM) | 16 (≈ 14.4 µM) | 8 (≈ 7.21 µM) | 2 (≈ 1.8 µM) | 1 (≈ 0.901 µM) | 8 | CCCCCCCCCCCC(=O)N[C@H](CCCNC(=N)N)C(=O)N[C@H](Cc1c[nH]c2ccccc12)C(=O)N[C@H](CCCNC(=N)N)C(=O)N[C@H](C)C(=O)N[C@H](CC(C)C)C(=O)N[C@H](C)C(=O)N[C@H](CCCNC(=N)N)C(N)=O [Peptide 245, Lauryl-rwralar-NH2] (Lauroyl-[dR][dW][dR][dA][dL][dA][dR]-NH2)
2 | 16 (≈ 8.55 µM) | 16 (≈ 8.55 µM) | >64 | 4 (≈ 2.14 µM) | 8 (≈ 4.28 µM) | 32 | CCCCCCCCCCCC(=O)N[C@H](CCCNC(=N)N)C(=O)N[C@H](CO)C(=O)N[C@H](CCCNC(=N)N)C(=O)N[C@H](Cc1c[nH]c2ccccc12)C(=O)N[C@H](CCCNC(=N)N)C(=O)N[C@H](CC(=O)O)C(=O)N[C@@H](C(=O)N[C@H](C)C(=O)N[C@H](CCCNC(=N)N)C(=O)N[C@H](C)C(=O)N[C@H](Cc1ccccc1)C(=O)N[C@H](CC(C)C)C(=O)N[C@H](CCCNC(=N)N)C(N)=O)C(C)C [Peptide 226, Lauryl-rsrwrdvaraflr-NH2] (Lauroyl-[dR][dS][dR][dW][dR][dD][dV][dA][dR][dA][dF][dL][dR]-NH2)
3 | 32 (≈ 29.2 µM) | >64 | >64 | 2 (≈ 1.83 µM) | 4 (≈ 3.65 µM) | >64 | CCCCCCCCCCCC(=O)N[C@@H](CCCNC(=N)N)C(=O)N[C@@H](Cc1c[nH]c2ccccc12)C(=O)N[C@@H](CCCNC(=N)N)C(=O)N[C@@H](C)C(=O)N[C@H](C(=O)N[C@@H](C)C(=O)N[C@@H](CCCNC(=N)N)C(N)=O)C(C)C [Peptide 243, Lauryl-RWRAVAR-NH2] (Lauroyl-RWRAVAR-NH2)
4 | 32 (≈ 17.1 µM) | 64 (≈ 34.1 µM) | 32 (≈ 17.1 µM) | 4 (≈ 2.13 µM) | 16 (≈ 8.53 µM) | 16 | CCCCCCCC(=O)N[C@H](CCCNC(=N)N)C(=O)N[C@H](CO)C(=O)N[C@H](CCCNC(=N)N)C(=O)N[C@H](Cc1c[nH]c2ccccc12)C(=O)N[C@H](CCCNC(=N)N)C(=O)N[C@H](CC(=O)O)C(=O)N[C@@H](C(=O)N[C@H](C)C(=O)N[C@H](CCCNC(=N)N)C(=O)N[C@H](CC(N)=O)C(=O)N[C@H](Cc1ccccc1)C(=O)N[C@H](CCSC)C(=O)N[C@H](CCCNC(=N)N)C(N)=O)C(C)C [Peptide 207, Octyl-rsrwrdvarnfmr-NH2] (Octanoyl-[dR][dS][dR][dW][dR][dD][dV][dA][dR][dN][dF][dM][dR]-NH2)
5 | 64 (≈ 32.9 µM) | 32 (≈ 16.5 µM) | >64 | 4 (≈ 2.06 µM) | 16 (≈ 8.24 µM) | 32 | CCCCCCCCCCCC(=O)N[C@@H](CCCNC(=N)N)C(=O)N[C@@H](CO)C(=O)N[C@@H](CCCNC(=N)N)C(=O)N[C@@H](Cc1cccc2ccccc12)C(=O)N[C@@H](CCCNC(=N)N)C(=O)N[C@@H](CC(=O)O)C(=O)N[C@H](C(=O)N[C@@H](C)C(=O)N[C@@H](CCCNC(=N)N)C(=O)N[C@@H](CC(N)=O)C(=O)N[C@@H](Cc1ccccc1)C(=O)N[C@@H](CCSC)C(=O)N[C@@H](CCCNC(=N)N)C(N)=O)C(C)C [Peptide 149, Lauryl-RSRZRDVARNFMR-NH2 Z = 1-naphthylalanine] (Lauroyl-RSR[1Nal]RDVARNFMR-NH2)
